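Assay format: 96-well plates, 48-hour exposure. At the GI50, growth is halved. TGI denotes the concentration required for complete inhibition of growth.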
Tests used:
Assay in all cases: NCI anticancer screen, dose series, 48 h
CAKI-1 renal = system: CAKI-1 renal
MDA-MB-231 breast = system: MDA-MB-231 breast
SK-MEL-5 melanoma = system: SK-MEL-5 melanoma
IGROV1 ovarian = system: IGROV1 ovarian
SK-MEL-2 melanoma = system: SK-MEL-2 melanoma
EKVX NSCLC = system: EKVX NSCLC
SW-620 colon = system: SW-620 colon
BT-549 breast = system: BT-549 breast
HT29 colon = system: HT29 colon
K-562 leukemia = system: K-562 leukemia
SR leukemia = system: SR leukemia
MOLT-4 leukemia = system: MOLT-4 leukemia
HOP-92 NSCLC = system: HOP-92 NSCLC
A498 renal = system: A498 renal
MDA-MB-435 = system: MDA-MB-435
M14 melanoma = system: M14 melanoma
RPMI-8226 leukemia = system: RPMI-8226 leukemia
PC-3 prostate = system: PC-3 prostate
SN12C renal = system: SN12C renal
COLO 205 colon = system: COLO 205 colon
UO-31 renal = system: UO-31 renal
OVCAR-4 ovarian = system: OVCAR-4 ovarian
UACC-257 melanoma = system: UACC-257 melanoma
A549 NSCLC = system: A549 NSCLC
HL-60(TB) leukemia = system: HL-60(TB) leukemia
NCI-H522 lung = system: NCI-H522 lung
RXF 393 renal = system: RXF 393 renal
SNB-75 CNS = system: SNB-75 CNS
TK-10 renal = system: TK-10 renal
UACC-62 melanoma = system: UACC-62 melanoma
U251 CNS = system: U251 CNS
HCC-2998 colon = system: HCC-2998 colon
ACHN renal = system: ACHN renal
SNB-19 CNS = system: SNB-19 CNS
DU-145 prostate = system: DU-145 prostate
T-47D breast = system: T-47D breast
HCT-15 colon = system: HCT-15 colon
SK-OV-3 ovarian = system: SK-OV-3 ovarian
786-0 renal = system: 786-0 renal
NCI/ADR-RES ovarian = system: NCI/ADR-RES ovarian
NCI-H460 lung = system: NCI-H460 lung
HCT-116 colon = system: HCT-116 colon
KM12 colon = system: KM12 colon
OVCAR-5 ovarian = system: OVCAR-5 ovarian
OVCAR-3 ovarian = system: OVCAR-3 ovarian
SF-539 CNS = system: SF-539 CNS
SF-268 CNS = system: SF-268 CNS
HOP-62 NSCLC = system: HOP-62 NSCLC
LOX IMVI melanoma = system: LOX IMVI melanoma
OVCAR-8 ovarian = system: OVCAR-8 ovarian
SF-295 CNS = system: SF-295 CNS
SK-MEL-28 melanoma = system: SK-MEL-28 melanoma
HS 578T breast = system: HS 578T breast
MCF7 breast = system: MCF7 breast
NCI-H226 lung = system: NCI-H226 lung
NCI-H23 lung = system: NCI-H23 lung
CCRF-CEM leukemia = system: CCRF-CEM leukemia

CC(C)(C)c1ccc(C(=O)Nc2sc3c(c2C#N)CCC(=O)C3)cc1 showed a GI50 (CAKI-1 renal) of 235 nM, a TGI (CAKI-1 renal) of 793 nM and a GI50 (MDA-MB-231 breast) of 746 nM. For the same compound, the TGI (MDA-MB-231 breast) was 3000 nM, the GI50 (SK-MEL-5 melanoma) was 706 nM and the TGI (SK-MEL-5 melanoma) was 1700 nM. It also gave a GI50 (IGROV1 ovarian) of 657 nM, a TGI (IGROV1 ovarian) of over 20400 nM and a GI50 (SK-MEL-2 melanoma) of 960 nM. The TGI (SK-MEL-2 melanoma) was 2910 nM, the GI50 (EKVX NSCLC) was 1130 nM and the TGI (EKVX NSCLC) was over 100000 nM. It also gave a GI50 (SW-620 colon) of 105 nM, a TGI (SW-620 colon) of 566 nM and a GI50 (BT-549 breast) of 338 nM. The TGI (BT-549 breast) was 16800 nM, the GI50 (HT29 colon) was 505 nM and the TGI (HT29 colon) was 3830 nM. For the same compound, the GI50 (K-562 leukemia) was 87.4 nM, the TGI (K-562 leukemia) was over 71400 nM and the GI50 (SR leukemia) was 149 nM. It also gave a TGI (SR leukemia) of over 38100 nM, a GI50 (MOLT-4 leukemia) of 324 nM and a TGI (MOLT-4 leukemia) of over 100000 nM. For the same compound, the GI50 (HOP-92 NSCLC) was 1210 nM, the TGI (HOP-92 NSCLC) was 4760 nM and the GI50 (A498 renal) was 1660 nM. It also gave a TGI (A498 renal) of 5580 nM, a GI50 (MDA-MB-435) of 873 nM and a TGI (MDA-MB-435) of 4820 nM. For the same compound, the GI50 (M14 melanoma) was 412 nM, the TGI (M14 melanoma) was over 83600 nM and the GI50 (RPMI-8226 leukemia) was 90.2 nM. It also gave a TGI (RPMI-8226 leukemia) of 495 nM, a GI50 (PC-3 prostate) of 139 nM and a GI50 (SN12C renal) of 611 nM. For the same compound, the TGI (SN12C renal) was over 53500 nM, the GI50 (COLO 205 colon) was 328 nM and the TGI (COLO 205 colon) was 944 nM. The GI50 (UO-31 renal) was 224 nM, the TGI (UO-31 renal) was 678 nM and the GI50 (OVCAR-4 ovarian) was 223 nM. For the same compound, the TGI (OVCAR-4 ovarian) was 687 nM, the GI50 (UACC-257 melanoma) was 690 nM and the TGI (UACC-257 melanoma) was 3470 nM. The GI50 (A549 NSCLC) was 980 nM, the TGI (A549 NSCLC) was over 100000 nM and the GI50 (HL-60(TB) leukemia) was 505 nM. For the same compound, the TGI (HL-60(TB) leukemia) was 1950 nM, the GI50 (NCI-H522 lung) was 233 nM and the TGI (NCI-H522 lung) was 1360 nM. For the same compound, the GI50 (RXF 393 renal) was 237 nM, the TGI (RXF 393 renal) was 796 nM and the GI50 (SNB-75 CNS) was 612 nM. It also gave a TGI (SNB-75 CNS) of 2600 nM, a GI50 (TK-10 renal) of 531 nM and a TGI (TK-10 renal) of 5080 nM. It also gave a GI50 (UACC-62 melanoma) of 347 nM, a TGI (UACC-62 melanoma) of 2240 nM and a GI50 (U251 CNS) of 218 nM. For the same compound, the TGI (U251 CNS) was over 100000 nM, the GI50 (HCC-2998 colon) was 1250 nM and the TGI (HCC-2998 colon) was over 100000 nM. For the same compound, the GI50 (ACHN renal) was 237 nM, the TGI (ACHN renal) was 641 nM and the GI50 (SNB-19 CNS) was 406 nM. The TGI (SNB-19 CNS) was over 100000 nM, the GI50 (DU-145 prostate) was 5930 nM and the TGI (DU-145 prostate) was over 100000 nM. For the same compound, the GI50 (T-47D breast) was 211 nM, the TGI (T-47D breast) was 905 nM and the GI50 (HCT-15 colon) was 281 nM. The TGI (HCT-15 colon) was 3400 nM, the GI50 (SK-OV-3 ovarian) was 2180 nM and the TGI (SK-OV-3 ovarian) was 9940 nM. It also gave a GI50 (786-0 renal) of 769 nM, a GI50 (NCI/ADR-RES ovarian) of 718 nM and a TGI (NCI/ADR-RES ovarian) of 5750 nM. For the same compound, the GI50 (NCI-H460 lung) was 890 nM, the TGI (NCI-H460 lung) was over 26000 nM and the GI50 (HCT-116 colon) was 122 nM. It also gave a GI50 (KM12 colon) of 418 nM, a TGI (KM12 colon) of over 100000 nM and a GI50 (OVCAR-5 ovarian) of 531 nM. It also gave a TGI (OVCAR-5 ovarian) of 5780 nM, a GI50 (OVCAR-3 ovarian) of 473 nM and a TGI (OVCAR-3 ovarian) of 1630 nM. For the same compound, the GI50 (SF-539 CNS) was 209 nM, the TGI (SF-539 CNS) was 936 nM and the GI50 (SF-268 CNS) was 625 nM. For the same compound, the TGI (SF-268 CNS) was over 100000 nM, the GI50 (HOP-62 NSCLC) was 1240 nM and the TGI (HOP-62 NSCLC) was over 100000 nM. It also gave a GI50 (LOX IMVI melanoma) of 262 nM, a GI50 (OVCAR-8 ovarian) of 643 nM and a TGI (OVCAR-8 ovarian) of over 100000 nM. The GI50 (SF-295 CNS) was 658 nM, the TGI (SF-295 CNS) was over 26200 nM and the GI50 (SK-MEL-28 melanoma) was 704 nM. It also gave a TGI (SK-MEL-28 melanoma) of 5670 nM, a GI50 (HS 578T breast) of 339 nM and a TGI (HS 578T breast) of over 20500 nM. It also gave a GI50 (MCF7 breast) of 320 nM, a GI50 (NCI-H226 lung) of 991 nM and a TGI (NCI-H226 lung) of 5740 nM. For the same compound, the GI50 (NCI-H23 lung) was 443 nM, the TGI (NCI-H23 lung) was over 100000 nM and the GI50 (CCRF-CEM leukemia) was 69.7 nM. The TGI (CCRF-CEM leukemia) was over 100000 nM.
